Measurements from article PMC3005895 (Journal of Nucleic Acids, 2010).

What was measured:
RPA DBD-A/B [1] = biological target: T1, RPA DBD-A/B (Homo sapiens, UniProt P27694); assay: Reversibility of inhibition: dialysis, then fluorescence polarization of DBD-A/B binding to F-dT12; details: preincubation 30 minutes, dialysis overnight, FP with F-dT12
T1 construct: we subcloned amino acids 181–432 of human RPA p70; inferred from pET15b vector and nickel-NTA purification) (N); made in house; host or cells: E. coli BL21(DE3)
Method: Fluorescence polarization experiments were preformed as previously described in [23]. SMIs were diluted in H1 buffer (10 mM HEPES, pH 7.2, 1 mM DTT, 0.01% NP-40, and 100 mM NaCl), and the final DMSO concentration was kept below 1%.
(§1) To assess the reversibility of select SMIs, the indicated SMI was preincubated with RPA or the DBD-A/B construct for 30 minutes at room temperature. The resulting solution was dialyzed versus 500 mL H1 buffer at 4°C using 0.5 ml, 12,000 molecular weight cut-off dialysis cassettes (Pierce). The resulting protein was recovered and concentration determined by Bradford analysis. Analysis of DNA binding activity was performed either by EMSA or FP. In each series of experiments, there was no loss of DNA binding activity in vehicle control-treated protein.
Figure 3 Irreversible inhibition of RPA DBD-A/B-DNA-binding activity by CheSS19. (a) EMSA analysis of CheSS19 inhibition of RPA DBD-A/B. Assays were performed as described in the legend to Figure 2. […] (c) Quantification of the binding data presented in panels (a) and (b). (d) Fluorescence polarization analysis of CheSS19 inactivated RPA DBD-A/B. RPA DBD-A/B was preincubated with vehicle (1% DMSO) or CheSS19 (1 pmol in 1% DMSO) for 30 minutes at 37°C. […] The protein was recovered, and DNA-binding activity measured by FP analysis of binding to an F-dT12 substrate was performed as described in “Section 2”. […]

E. coli SSB = test system: T2, E. coli SSB; assay: E. coli SSB binding assay (EMSA); details: for effect on EcSSB binding to ssDNA (result in words): EMSA, preincubation with SMI
T2 construct: purchased Enzymatics, Beverly, MA
Method: E. coli SSB Binding Assay These EMSAs were performed similarly to those for the RPA constructs, with the following exceptions. Reactions contained 25 nM of 5′-[^32P]-labeled 3Pc3 ssDNA and 3.3 nM (assuming homotetramer formation) SSB protein (Enzymatics, Beverly, MA). Reactions (20 μL) were carried out in 20 mM HEPES, pH 7.5, 1 mM DTT, 0.01% NP-40, 100 mM NaCl and resolved by 6% native polyacrylamide gel electrophoresis at 25 mA for 2 hours. Gels were dried and quantified via phosphorimager analysis as described above.

[2] = Cellular activity (data not shown); assay type: cell-based
[3] = biological target: T3, full-length heterotrimeric RPA (Homo sapiens, UniProt P27694); set-up: method as in earlier work; details: prior observation; cited from earlier work
T3 construct: Human full-length, untagged heterotrimeric RPA (RPA) was purified as previously described; made in house

RPA DBD-A/B [4] = biological target: T1, RPA DBD-A/B; assay: EMSA of RPA DBD-A/B binding to ssDNA; details: for inhibition of DBD-A/B DNA binding (result in words): 25–200 μM inhibitor
Method: DBD-A/B The sequence encoding the RPA p70 DNA-binding domains A and B was subcloned from the hrRPA plasmid (provided by Dr. Marc Wold, University of Iowa) into the pET15b (Novagen) vector, and the protein was expressed in BL21(DE3) cells (Stratagene) as previously described in [9]. Briefly, cells were grown to an OD600 of 0.8, induced with 0.5 mM isopropyl-1-thio-β-D-galactopyranoside (IPTG) at 37°C for 2-3 hours. Small-scale DBD-A/B preparations were obtained from 1 L cultures, and, following induction, cells were harvested by centrifugation at 700 × g for 30 minutes at 4°C. The pellets were suspended in Buffer A (20 mM Tris, pH 7.5, 10% glycerol, 500 mM NaCl, 10 mM β-mercaptoethanol (BME), and 1 μg/mL phenylmethanesulfonyl fluoride (PMSF), leupeptin, and pepstatin) at 1 mL/gram of cells. The cells were lysed by sonication and insoluble material sedimented at 15,000 × g for 30 minutes at 4°C. The supernatant was then loaded onto a 10 mL phosphocellulose column, equilibrated with Buffer A, and the flow-through material collected. Imidazole was added to the flow-through to a final concentration of 5 mM, which was then loaded onto a 2 mL nickel-NTA-agarose column. The column was then washed with Buffer A containing 50 mM imidazole after which protein was eluted from the column using a gradient from 50–500 mM imidazole. Fractions were analyzed for protein content using Bradford and SDS-PAGE analysis in addition to assessment of DNA binding activity as determined by anisotropy. Fractions containing the DBD-A/B protein were pooled and dialyzed overnight in Buffer B (1 mM HEPES, pH 7.2, 10 mM dithiothreitol (DTT), 50 mM NaCl, and 1 μg/mL PMSF, pepstatin, and leupeptin) and aliquots stored at −80°C.
(§2) RPA and DBD-A/B Binding EMSAs were performed as previously described in [16] using a purine rich ssDNA substrate (3Pc3). Briefly, reactions contained 12.5 nM 5′-[^32P]-labeled 3Pc3 ssDNA and the indicated concentrations of RPA or DBD-A/B. Protein was preincubated with the indicated concentration of SMI for 30 minutes at 37°C. DNA was then added and reactions incubated for additional 5 minutes at room temperature in a final reaction volume of 40 μL. Reactions were then resolved on a 6% native polyacrylamide gel and electrophoresed at 170 volts for 1 hour. Gels were dried and quantified via phosphorimager analysis and ImageQuant software (Molecular Dynamics).

[5] = biological target: T3, full-length heterotrimeric RPA; assay: EMSA of full-length heterotrimeric RPA binding to ssDNA; details: 3Pc3 ssDNA, three independent experiments, read-out: IC50 for inhibition of full-length heterotrimeric RPA
Method: RPA Human full-length, untagged heterotrimeric RPA (RPA) was purified as previously described in [17].
as §2

[6] = biological target: T4, Schizosaccharomyces pombe Pot1(DBD) (Schizosaccharomyces pombe, UniProt O13988); assay: Schizosaccharomyces pombe Pot1(DBD) binding assay (EMSA); details: 15-mer ssDNA, three independent experiments, read-out: IC50 for inhibition of SpPot1(DBD) ssDNA binding
T4 construct: gift of Dr. Deborah Wuttke, University of Colorado, Boulder
T4 sequence (O13988 1-389): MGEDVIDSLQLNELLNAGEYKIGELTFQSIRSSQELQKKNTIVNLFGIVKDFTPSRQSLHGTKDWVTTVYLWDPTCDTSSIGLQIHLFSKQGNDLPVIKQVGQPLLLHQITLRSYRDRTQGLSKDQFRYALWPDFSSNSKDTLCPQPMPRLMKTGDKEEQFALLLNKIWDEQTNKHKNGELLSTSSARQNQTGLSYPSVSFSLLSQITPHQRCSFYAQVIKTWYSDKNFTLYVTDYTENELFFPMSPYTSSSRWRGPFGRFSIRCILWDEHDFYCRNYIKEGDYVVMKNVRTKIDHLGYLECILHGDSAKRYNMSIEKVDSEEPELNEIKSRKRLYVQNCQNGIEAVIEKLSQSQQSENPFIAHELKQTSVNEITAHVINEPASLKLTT
Method: Schizosaccharomyces pombe Pot1(DBD) Binding Assay EMSAs were performed as described above for EcSSB. Reactions contained 25 nM of 5′-[^32P]-labeled 15-mer ssDNA and 20 nM Pot1(DBD) protein (generously provided by Dr. Deborah Wuttke, University of Colorado, Boulder). Reactions (20 μL) were carried out in 20 mM HEPES, pH 7.5, 1 mM DTT, 0.01% NP-40, 100 mM NaCl, at room temperature, and resolved by 6% native polyacrylamide gel electrophoresis at 25 mA for 2 hours. Gels were dried and quantified via phosphorimager analysis as described above.

[7] = biological target: T3, full-length heterotrimeric RPA; details: highest concentration tested (100 μM); cited from earlier work
[8] = test system: human lung cancer cell model; details: cited from earlier work
[9] = biological target: T3, full-length heterotrimeric RPA; assay: Reversibility of inhibition: dialysis, then EMSA of full-length RPA; assay type: binding; details: dialysis overnight, EMSA with 34-base DNA
Method: as §2
as §1, with “In each series of experiments, there was no loss of DNA binding activity in vehicle control-treated protein.” left out
Figure 5 Irreversible inactivation of full-length heterotrimeric RPA by MCI13E. […] DNA binding activity of the resulting protein was assessed by EMSA using a 5′-[^32P]-ss 34-base DNA as described in “Section 2.” Lanes 1–4 predialysis, lanes 5 and 6 postdialysis.

RPA DBD-A/B [10] = biological target: RPA DBD-A/B (human, UniProt P27694 181-432); assay: EMSA; ~50% of DNA bound at 125 nM protein; data not shown; DNA 12.5 nM; RPA/DBD-A/B EMSA: 12.5 nM DNA, protein preincubated with inhibitor 30 min at 37 C, then DNA 5 min at room temp; FP: 20 nM DNA, inhibitor diluted in H1 buffer (1)
Chain of RPA DBD-A/B (human, UniProt P27694 181-432) (P27694 181-432): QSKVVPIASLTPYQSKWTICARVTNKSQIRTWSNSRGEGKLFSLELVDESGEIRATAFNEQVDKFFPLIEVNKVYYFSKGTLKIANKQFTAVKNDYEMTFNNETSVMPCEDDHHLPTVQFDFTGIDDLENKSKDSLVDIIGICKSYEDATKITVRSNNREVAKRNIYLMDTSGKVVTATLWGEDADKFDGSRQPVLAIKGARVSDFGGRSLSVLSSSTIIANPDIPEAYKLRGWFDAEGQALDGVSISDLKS

T3 sequence (P27694 whole entry): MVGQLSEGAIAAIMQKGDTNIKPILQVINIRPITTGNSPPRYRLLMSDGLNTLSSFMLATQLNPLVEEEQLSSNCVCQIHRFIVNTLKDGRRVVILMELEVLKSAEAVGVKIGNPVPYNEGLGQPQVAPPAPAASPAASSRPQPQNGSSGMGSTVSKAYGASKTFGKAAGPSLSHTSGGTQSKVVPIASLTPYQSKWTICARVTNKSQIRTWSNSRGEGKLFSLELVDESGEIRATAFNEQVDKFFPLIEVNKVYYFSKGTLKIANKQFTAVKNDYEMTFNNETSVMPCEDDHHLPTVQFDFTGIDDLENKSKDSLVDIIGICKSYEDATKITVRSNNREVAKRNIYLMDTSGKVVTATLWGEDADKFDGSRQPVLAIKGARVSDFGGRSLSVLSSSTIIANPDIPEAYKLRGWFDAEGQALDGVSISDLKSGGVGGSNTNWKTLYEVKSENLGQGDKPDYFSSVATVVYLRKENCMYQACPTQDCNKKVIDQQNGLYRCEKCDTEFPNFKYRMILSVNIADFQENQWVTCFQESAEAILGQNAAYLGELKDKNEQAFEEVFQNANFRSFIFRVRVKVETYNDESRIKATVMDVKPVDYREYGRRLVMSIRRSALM
T3 sequence (P15927 whole entry partner): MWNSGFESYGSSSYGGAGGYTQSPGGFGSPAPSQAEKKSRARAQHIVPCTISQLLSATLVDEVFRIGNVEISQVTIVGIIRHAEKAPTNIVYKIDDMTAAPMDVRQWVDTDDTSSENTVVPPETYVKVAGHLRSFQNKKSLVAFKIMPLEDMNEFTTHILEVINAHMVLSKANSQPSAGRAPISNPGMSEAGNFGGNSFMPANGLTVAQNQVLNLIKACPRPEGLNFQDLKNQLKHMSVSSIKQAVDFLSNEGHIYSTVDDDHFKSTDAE
T3 sequence (P35244 whole entry partner): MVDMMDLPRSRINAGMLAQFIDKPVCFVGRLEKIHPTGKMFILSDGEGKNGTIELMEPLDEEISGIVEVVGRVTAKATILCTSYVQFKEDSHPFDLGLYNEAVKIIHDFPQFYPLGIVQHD
T1 sequence (P27694 181-432): as the sequence (P27694 181-432) above

O=C1OC(=O)[C@H]2C3C=CC(CC3)[C@@H]12 [CheSS19]
mode of inhibition of DBD-A/B after dialysis (RPA DBD-A/B [1]): irreversible
effect on EcSSB binding to ssDNA (result in words) (E. coli SSB): unaffected
cellular activity [2]: does not display any cellular activity
mode of inhibition of full-length RPA [3]: irreversibly inhibited

CC1(C)C2CCC1(C)C(OC(=O)CI)C2 (stereo not drawn) [MCI13F]
inhibition of DBD-A/B DNA binding (result in words) (RPA DBD-A/B [4]; EMSA): lack of inhibition
IC50 [5]: 10.1 µM
effect on EcSSB binding to ssDNA (result in words) (E. coli SSB): unaffected

CCOc1ccc2cc(C3CC(c4ccc(Br)cc4)=NN3C(=O)CCC(=O)O)c(Cl)nc2c1 (stereo not drawn) [TDRL-505]
IC50 (RPA DBD-A/B [4]; EMSA, 125 nM DBD-A/B, 12.5 nM DNA, TDRL-505 10–100 μM, read-out: half-maximal inhibition of DBD-A/B DNA binding activity): ~40 µM
half-maximal inhibition of DBD-A/B relative to intact heterotrimer (RPA DBD-A/B [4]; compared with heterotrimer value of ref 12): about twice
inhibition at 100 µM (RPA DBD-A/B [4]; highest concentration tested (100 μM), read-out: inhibition of RPA DBD-A/B DNA binding): ~90%
decrease in EcSSB binding to ssDNA (E. coli SSB; 100 μM, highest concentration tested): ~ 20%
effect on EcSSB binding to ssDNA (result in words) (E. coli SSB): ineffective
IC50 [6]: 15.7 ± 1.6 µM
inhibition of RPA DNA binding [7]: ~90%
synergy with etoposide [8]: synergize
synergy with cisplatin ([8]; human lung cancer cell model): synergize

CC1(C)C2CCC1(C)C(OC(=O)CBr)C2 (stereo not drawn) [MCI13E]
inhibition of DBD-A/B DNA binding (result in words) (RPA DBD-A/B [4]; EMSA): lack of inhibition
IC50 [5]: 16.1 µM
mode of inhibition of full-length RPA after dialysis [9]: inhibition was not reversed by dialysis
effect on EcSSB binding to ssDNA (result in words) (E. coli SSB): unaffected

CTAGAAAGGGGGAAGAAAGGGAAGAGGCCAGAGA (ssDNA) [34-mer]
apparent K (half saturation) (RPA DBD-A/B [10]): ~125 nM
